Reference: patent publication US20230107642A1 (Erasca, Inc., priority 2020, published 2023)

biological target: T1, Cys12 of the KRAS 4B G12C protein (Homo sapiens, UniProt P01116, G12C); assay: In vitro covalent adduct formation (CAF) assay, LC-MS intact mass; type: binding; conditions: 10 uM compound, 60 min
T1 construct: This protein contained 188 amino acids in total, including an N-terminal 6-Histidine tag; made in house; host or cells: E. coli BL21
How it was run: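 GDP-loaded (>95%) His-TEV-tagged KRAS 4B G12C (residues 1–169), 5 μM in TBS pH 7.4, incubated with 10 μM compound (4% DMSO) at 22° C for one hour. Intact-protein LC-MS gave free:adduct ratios, reported as percent protein modified; duplicate runs.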

% CAF 10 uM @ 60 min	Compound
64.6%	C=CC(=O)N1[C@H](C)CN(c2nc(=O)n3c4c(c(-c5cc(Cl)c(F)cc5F)c(C(F)(F)F)cc24)SC[C@@H]3COCOC)C[C@@H]1C (atropisomer, axis not shown) [Example 1369]
95.8%	C=CC(=O)N1C[C@H](C)N(c2nc(=O)n3c4c(c(-c5ccc(F)cc5F)c(C(F)(F)F)cc24)SC[C@@H]3CN2CCC3(CC2)COC3)C[C@H]1C (atropisomer, axis not shown) [Example 1314, (3S,10S)-3-((2-oxa-7-azaspiro[3.5]nonan-7-yl)methyl)-7-((2S,5R)-4-acryloyl-2,5-dimethylpiperazin-1-yl)-10-(2,4-difluorophenyl)-9-(trifluoromethyl)-2,3-dihydro-5H-[1,4]thiazino[2,3,4-ij]quinazolin-5-one]
69.1%	C=CC(=O)N1[C@H](C)CN(c2nc(=O)n3c4c(c(-c5cccc6cnn(C)c56)c(C(F)(F)F)cc24)SC[C@@H]3CN2CCN(CC)CC2)C[C@@H]1C (atropisomer, axis not shown) [Example 1389, (3S,10S)-7-((3S,5R)-4-acryloyl-3,5-dimethylpiperazin-1-yl)-3-((4-ethylpiperazin-1-yl)methyl)-10-(1-methyl-1H-indazol-7-yl)-9-(trifluoromethyl)-2,3-dihydro-5H-[1,4]thiazino[2,3,4-ij]quinazolin-5-one]
95.1%	C=CC(=O)N1CCN(c2nc(=O)n3c4c(c(-c5cc(Cl)c(F)cc5F)c(C(F)(F)F)cc24)SCC2(COC2)C3)CC1 (atropisomer, axis not shown) [Example 1396, (R)-8′-(4-acryloylpiperazin-1-yl)-11′-(5-chloro-2,4-difluorophenyl)-10′-(trifluoromethyl)-2′H,4′H,6′H-spiro[oxetane-3,3′-[1,4]thiazepino[2,3-4-ij]quinazolin-6′-one]
96%	C=CC(=O)N1[C@H](C)CN(c2nc(=O)n3c4c(c(-c5ccc(F)c(Cl)c5)c(C(F)(F)F)cc24)SC[C@@H]3COC)C[C@@H]1C [Example 1316, (S)-7-((3S,5R)-4-acryloyl-3,5-dimethylpiperazin-1-yl)-10-(3-chloro-4-fluorophenyl)-3-(methoxymethyl)-9-(trifluoromethyl)-2,3-dihydro-5H-[1,4]thiazino[2,3,4-ij]quinazolin-5-one]

Compound	% CAF 10 uM @ 60 min
C=CC(=O)N1[C@@H]2CC[C@H]1CN(c1nc(=O)n3c4c(c(-c5cc(Cl)c(F)cc5F)c(Cl)cc14)SC[C@@H]3CN1CCN(CC)CC1)C2 [Example 1400, (3S)-7-((1R,5S)-8-acryloyl-3,8-diazabicyclo[3.2.1]octan-3-yl)-9-chloro-10-(5-chloro-2,4-difluorophenyl)-3-((4-ethylpiperazin-1-yl)methyl)-2,3-dihydro-5H-[1,4]thiazino[2,3,4-ij]quinazolin-5-one]	43.7%

same assay, conditions: 10 uM compound, 60 min incubation

% CAF 10 uM @ 60 min	Compound
98.2%	C=CC(=O)N1CCN(c2nc(=O)n3c4c(c(-c5ccc(F)cc5)c(C(F)(F)F)cc24)SC[C@@H]3COC)CC1 [Example 1106, (S)-7-(4-acryloylpiperazin-1-yl)-10-(4-fluorophenyl)-3-(methoxymethyl)-9-(trifluoromethyl)-2,3-dihydro-5H-[1,4]thiazino[2,3,4-ij]quinazolin-5-one]
97%	C=CC(=O)N1CCN(c2nc(=O)n3c4c(c(-c5cc(Cl)c(F)cc5F)c(C(F)(F)F)cc24)SC[C@@H]3COC)CC1 (atropisomer, axis not shown) [Example 1107, (3S,10R)-7-(4-acryloylpiperazin-1-yl)-10-(5-chloro-2,4-difluorophenyl)-3-(methoxymethyl)-9-(trifluoromethyl)-2,3-dihydro-5H-[1,4]thiazino[2,3,4-ij]quinazolin-5-one]
83.4%	C=CC(=O)N1[C@H](C)CN(c2nc(=O)n3c4c(c(-c5cc(Cl)c(F)cc5F)c(C(F)(F)F)cc24)SC[C@@H](N2CCCC2)C3)C[C@@H]1C (atropisomer, axis not shown) [Example 1137, (3S,11R)-8-((3S,5R)-4-acryloyl-3,5-dimethylpiperazin-1-yl)-11-(5-chloro-2,4-difluorophenyl)-3-(pyrrolidin-1-yl)-10-(trifluoromethyl)-3,4-dihydro-2H,6H-[1,4]thiazepino [2,3,4-ij]quinazolin-6-one]

same assay, conditions: 10 μM compound, after 1 hour

CAF (% after 1 hour)	Compound
96%	C=CC(=O)N1[C@H](C)CN(c2nc(=O)n3c4c(c(-c5cc(C)c(F)cn5)c(C(F)(F)F)cc24)SC[C@@H](OC)C3)C[C@@H]1C [Example 1209, (S)-8-((3S,5R)-4-acryloyl-3,5-dimethylpiperazin-1-yl)-11-(5-fluoro-4-methylpyridin-2-yl)-3-methoxy-10-(trifluoromethyl)-3,4-dihydro-2H,6H-[1,4]thiazepino[2,3,4-ij]quinazolin-6-one]

same assay, conditions: after 60 min

CAF (% binding after 60 min)	Compound
96%	C=CC(=O)N1CCN(c2nc(=O)n3c4c(c(-c5ccc(F)cc5F)c(C(F)(F)F)cc24)SC[C@H](OCCOC)C3)CC1 [Example 1018, (3R)-8-(4-acryloylpiperazin-1-yl)-11-(2,4-difluorophenyl)-3-(2-methoxyethoxy)-10-(trifluoromethyl)-3,4-dihydro-2H,6H-[1,4]thiazepino[2,3,4-ij]quinazolin-6-one]
97%	C=CC(=O)N1[C@H](C)CN(c2nc(=O)n3c4c(c(-c5ccc(F)c(Cl)c5)c(C(F)(F)F)cc24)SC[C@@H](OCCN(C)C)C3)C[C@@H]1C [Example 1035, (S)-8-((3S,5R)-4-acryloyl-3,5-dimethylpiperazin-1-yl)-11-(3-chloro-4-fluorophenyl)-3-(2-(dimethylamino)ethoxy)-10-(trifluoromethyl)-3,4-dihydro-2H,6H-[1,4]thiazepino[2,3,4-ij]quinazolin-6-one]
97%	C=CC(=O)N1CCN(c2nc(=O)n3c4c(c(-c5ccc(F)cc5)c(C(F)(F)F)cc24)SC[C@H](OCOC)C3)CC1 [Example 1005, (R)-8-(4-acryloylpiperazin-1-yl)-11-(4-fluorophenyl)-3-(methoxymethoxy)-10-(trifluoromethyl)-3,4-dihydro-2H,6H-[1,4]thiazepino[2,3,4-ij]quinazolin-6-one]
97%	C=CC(=O)N1CCN(c2nc(=O)n3c4c(c(-c5ccc(F)c(Cl)c5)c(C(F)(F)F)cc24)SC[C@H](OC)C3)CC1 [Example 1041, (R)-8-(4-acryloylpiperazin-1-yl)-11-(3-chloro-4-fluorophenyl)-3-methoxy-10-(trifluoromethyl)-3,4-dihydro-2H,6H-[1,4]thiazepino[2,3,4-ij]quinazolin-6-one]
96%	C=CC(=O)N1[C@H](C)CN(c2nc(=O)n3c4c(c(-c5ccc(F)c(Cl)c5)c(C(F)(F)F)cc24)SC[C@H](OC)C3)C[C@@H]1C [Example 1045, (R)-8-((3S,5R)-4-acryloyl-3,5-dimethylpiperazin-1-yl)-11-(3-chloro-4-fluorophenyl)-3-methoxy-10-(trifluoromethyl)-3,4-dihydro-2H,6H-[1,4]thiazepino[2,3,4-ij]quinazolin-6-one]
96%	C=CC(=O)N1[C@H](C)CN(c2nc(=O)n3c4c(c(-c5ccc(F)c(Cl)c5)c(C(F)(F)F)cc24)SC[C@@H](OCOC)C3)C[C@@H]1C [Example 1014, (S)-8-((3S,5R)-4-acryloyl-3,5-dimethylpiperazin-1-yl)-11-(3-chloro-4-fluorophenyl)-3-(methoxymethoxy)-10-(trifluoromethyl)-3,4-dihydro-2H,6H-[1,4]thiazepino[2,3,4-ij]quinazolin-6-one]
